Results published in patent US20120308570A1, “METHODS FOR TREATING DISEASES” (priority 2009, published 2012).

Experiments:
[1] = biological target: T1, SSB-2/elongin BC complex ubiquitination of iNOS (Mus musculus, UniProt O88838); assay: Cell-free ubiquitination assay of iNOS; type: biochemical; details: excess free iNOS peptide; 10 and 40 min incubation
T1 sequence (O88838 1-264): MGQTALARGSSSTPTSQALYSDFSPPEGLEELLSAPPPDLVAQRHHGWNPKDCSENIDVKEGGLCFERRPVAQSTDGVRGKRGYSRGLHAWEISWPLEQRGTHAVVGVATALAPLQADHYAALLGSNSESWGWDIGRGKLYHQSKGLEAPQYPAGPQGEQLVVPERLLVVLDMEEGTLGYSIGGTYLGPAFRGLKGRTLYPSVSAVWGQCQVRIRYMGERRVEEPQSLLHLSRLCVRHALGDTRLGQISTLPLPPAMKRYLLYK
Experimental: Ubiquitination assays were performed in 20 μl in 20 mM Tris-HCl, 50 mM NaCl, 5 mM MgCl2, 2.5 mM ATP, 0.1 mM DTT. Reactions were stopped by the addition of 2×SDS PAGE loading buffer and heating at 95° C. for 5 min. Reactions contained 0.1 μM E1, 2.5 μM E2, 2.5 μM E3, 50 μM ubiquitin and 5 μM SSB-2/elonginBC and were incubated for 30 minutes or as indicated at 37° C. Cell lysate was added as substrate. Results were visualised by Western Blot using anti iNOS monoclonal antibody following SDS-PAGE.
SOCS box proteins recruit an E3 ubiquitin ligase complex which in the presence of E1 and […] enzymes polyubiquitinates interacting proteins, targeting them for proteasomal degradation. […] LPS/IFNγ stimulated macrophage lysates were used as a source of iNOS and incubated with ubiquitin and a trimeric SSB-2/elongin BC complex, in the presence of E1 and E2 enzymes, Rbx 1 and Cullin5. The reaction mixtures were then analysed by SDS-PAGE and Western blot with anti-iNOS antibodies. Enhanced. polyubiquitination of iNOS, as evidenced by higher molecular weight smearing, was observed after 10 and 40 min incubation in the presence of the SSB2/elongin BC complex.

iNOS/SSB-2 interaction = biological target: T2, iNOS/SSB-2 interaction (Mus musculus, UniProt O88838); assay: Peptide competition assay (anti-Flag immunoprecipitation, anti-iNOS Western blot); type: binding
T2 construct: cDNA clones covering the entire coding region of murine SSB-1 to −4 were isolated; expressed in transfected cells; host or cells: 293T cells (Flag-SSB-2); C57BL/6 BMDM lysate (iNOS)
T2 sequence (O88838 1-264): T1 sequence (O88838 1-264)
Experimental: 293T cells were transfected with vector alone or a construct expressing FLAG-tagged SSB-2 and lysed as described above. iNOS peptide (SEQ ID NO:3) was added in increasing concentrations (0.001, 0.01, 0.1, 1.0 and 10 μM) to iNOS-expressing lysate generated from C57BL/6 BMDM stimulated with LPS/IFNγ. 293T lysates were then added to the macrophage/iNOS peptide lysates and incubated for 1 h at 4° C. Anti-Flag antibody coupled to Sepharose beads (M2, Sigma) was added to the lysate mix and incubated for 3 h at 4° C. Complexes were then separated by SDS-PAGE and analysed by Western blot with anti-iNOS antibodies.
Given that there are a number of disease states where elevated or prolonged iNOS expression might be beneficial, the present inventors were interested in whether the iNOS/SSB-2 interaction could be disrupted. As a simple proof-of-concept experiment, free iNOS peptide was used to competitively disrupt the interaction. 293T cells were transiently transfected with cDNA expressing Flag-tagged SSB-2, lysed and mixed with iNOS-expressing macrophage lysates which contained increasing amounts of free iNOS peptide.

[2] = biological target: T3, SSB-2 SPRY domain (SSB-2ΔSB, residues 12-224) (Mus musculus, UniProt O88838); assay: ITC of SSB-2 SPRY domain with iNOS N-terminal peptides; type: binding; details: 25° C., 100 mM TrisHCl, 150 mM NaCl, pH 8.0
T3 construct: GST (N, cleaved yes); made in house; host or cells: E. coli BL21 (DE3)
T3 sequence (O88838 12-224): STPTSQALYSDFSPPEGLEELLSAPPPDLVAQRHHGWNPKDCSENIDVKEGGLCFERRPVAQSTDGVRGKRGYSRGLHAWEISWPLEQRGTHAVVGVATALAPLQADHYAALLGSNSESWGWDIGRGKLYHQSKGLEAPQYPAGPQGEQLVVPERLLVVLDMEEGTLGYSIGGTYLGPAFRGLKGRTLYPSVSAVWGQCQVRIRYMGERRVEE
Text: The construct used for expression of recombinant murine SSB-2 protein included almost all the native sequence of mouse SSB-2 except for the SOCS box and the first eleven residues (residues 12-224, SWISS-PROT accession number 088838). This sequence, together with six residues at the N-terminus (GSSARQ (SEQ ID NO:38), numbered 6-11) and seven at the C-terminus (TRRIHRD (SEQ ID NO:39), numbered 225-231), both originating from the vector, gave a construct of 226 residues in total. This was expressed as a GST fusion protein in BL21 (DE3) E. coli. For ITC and co-precipitation experiments, bacteria were grown in L-broth. For NMR analysis, bacteria were grown in M9 minimal media supplemented with ^15N NH4Cl (99%, 1 g L−1). The GST fusion protein was purified from clarified cell lysates using Glutathione Sepharose 4B (Amersham Biosciences) then cleaved in situ using thrombin (Roche). […]
To determine whether the SSB-2-SPRY domain could interact with the sequence identified by the database searches, a series of peptides including the wild-type and various mutant sequences corresponding to amino acids 19-31 of murine iNOS, were synthesized and binding affinities for the SSB-2-SPRY domain (residues 12-224; SSB-2ΔSB) measured using isothermal titration calorimetry (ITC) (Table 2, FIG. 3).

Substance: Ac-KEEKDINNNVKKT-NH2 [I, Ac-KEEKDINNNVKKT-NH2]
- inhibition of polyubiquitination of iNOS [1]: completely inhibited
- inhibition of SSB-2 interaction with iNOS (iNOS/SSB-2 interaction; 100 nM iNOS peptide): modestly inhibited
- inhibition of SSB-2 interaction with iNOS (iNOS/SSB-2 interaction; 1000 nM peptide): completely inhibited
- Kd [2]: 13 nM
